The values below come from US20220387602A1, “BIFUNCTIONAL DEGRADERS AND THEIR METHODS OF USE” (NOVARTIS AG, priority 2019, published 2022).

For one assay, the target named is T1, EPHA4 (Homo sapiens, UniProt P54764).
T1 construct: EGFP (after a Leu that replaces the STOP codon); expressed in transfected cells; host or cells: HEK293A (Invitrogen R70507), lentiviral transduction
The experiment in a line: EPHA4-GFP protein abundance flow cytometry assay in HEK293A. The class given is cell-based. The settings on record: for EPHA4 Amax: % protein remaining at the concentration of maximum degradation; for DC50: HEK293A EPHA4-GFP sensor cells, 24 h. The protocol: (§1) Degradation of BTK, CSK, ABL2, EPHA4 and YES1 was measured in HEK293A cells (Invitrogen R70507) expressing either BTK-GFP and RFP, CSK-GFP and mCherry, GFP-ABL2 and mCherry, EPHA4-GFP and mCherry, or YES1-GFP and mCherry from a stably integrated bicistronic BTK-GFP-iresRFP, CSK-GFP-CHYSEL-mCherry, GFP-ABL2-CHYSEL-mCherry, EPHA4-GFP-CHYSEL-mCherry, or YES1-GFP-CHYSEL-mCherry construct, respectively. Reduction of the GFP signal measured by flow cytometry served as readout for BTK, CSK, ABL2, EPHA4 and YES1 degradation after degrader treatment.
(§2) 293A BTK-GFP-Ires-RFP, CSK-GFP-CHYSEL-mCherry, GFP-ABL2-CHYSEL-mCherry, EPHA4-GFP-CHYSEL-mCherry, or YES1-GFP-CHYSEL-mCherry sensor cells were generated by lentiviral vector transduction using the pLenti6-BTK-GFP-Ires-RFP, pLenti6-mCherryCHYSEL-EGFP-ABL2, pLenti6-CSK-GFP-CHYSEL-mCherry, pLenti6-EPHA4-GFP-CHYSEL-mCherry or pLenti6-YES1-GFP-CHYSEL-mCherry sensor construct described before. Lentiviral particles were produced in HEK293FT cells (Invitrogen R70007) by co-transfection of 500 ng pLenti6-BTK-GFP-Ires-RFP or pLenti6-IKZF3-GFP-Ires-RFP, 500 ng delta8.71 and 200 ng pVSVG diluted in 100 μL OptiMEM serum free medium (Invitrogen #11058-021) that was mixed after 5 min preincubation with 3 μL of Lipofectamine2000 (Invitrogen #11668-019) in 97 μL OptiMEM serum free medium. The mix was incubated for another 20 min at RT and then added on 1 mL of a freshly prepared suspension of HEK293FT cells in a well of a 6-well plate (concentration 1.2×10^6 cells/mL). 1 day after transfection, the medium was replaced with 1.5 mL of complete growth medium (DMEM high Glucose+10% FCS+1% L-Glutamine+1% NEAA+1% NaPyr.). 48 h post transfection supernatant containing viral transducing particles was collected and frozen at −80° C.
(§3) 2 days before transduction with viral particles 1×10^5 HEK293A cells (Invitrogen R70507) were seeded in 2 mL growth medium in a well of a 6-well plate. Infection was performed with 90 μL of collected supernatant containing viral transducing particles in 1 mL medium including 8 µg/mL polybrene. 24 h post infection, stably transfected cells were selected with blasticidin at a concentration of 8 μg/mL referred to as stable HEK293A sensor cells.
(§4) Stable HEK293A sensor cells were maintained in complete growth medium (DMEM high Glucose+10% FCS+1% L-Glutamine+1% NEAA+1% NaPyr.) with passaging performed twice per week. […] GFP and RFP are read in the channels called FITC and PE, respectively.
(§5) Concentration response curves plotting relative reduction of the GFP signal (measured by flow cytometry) versus 10 compound concentrations (starting concentration 10 μM, 3 fold dilution steps) of the compounds allowed generation of DC50 values.
(In general: Flow cytometry measures light scatter and fluorescence of single cells or particles in a stream.)

For a further assay, the target named is T2, ABL2 (Homo sapiens, UniProt P42684).
T2 construct: expressed in transfected cells; host or cells: HEK293A (Invitrogen R70507), lentiviral transduction
The assay is described as follows: GFP-ABL2 protein abundance flow cytometry assay in HEK293A. In kind it is cell-based. The note with it: for ABL2 Amax: % protein remaining at the concentration of maximum degradation; for DC50: HEK293A GFP-ABL2 sensor cells, 24 h. The protocol:
as §1, §2, §3, §4, §5

T2 sequence (P42684 whole entry, looked up): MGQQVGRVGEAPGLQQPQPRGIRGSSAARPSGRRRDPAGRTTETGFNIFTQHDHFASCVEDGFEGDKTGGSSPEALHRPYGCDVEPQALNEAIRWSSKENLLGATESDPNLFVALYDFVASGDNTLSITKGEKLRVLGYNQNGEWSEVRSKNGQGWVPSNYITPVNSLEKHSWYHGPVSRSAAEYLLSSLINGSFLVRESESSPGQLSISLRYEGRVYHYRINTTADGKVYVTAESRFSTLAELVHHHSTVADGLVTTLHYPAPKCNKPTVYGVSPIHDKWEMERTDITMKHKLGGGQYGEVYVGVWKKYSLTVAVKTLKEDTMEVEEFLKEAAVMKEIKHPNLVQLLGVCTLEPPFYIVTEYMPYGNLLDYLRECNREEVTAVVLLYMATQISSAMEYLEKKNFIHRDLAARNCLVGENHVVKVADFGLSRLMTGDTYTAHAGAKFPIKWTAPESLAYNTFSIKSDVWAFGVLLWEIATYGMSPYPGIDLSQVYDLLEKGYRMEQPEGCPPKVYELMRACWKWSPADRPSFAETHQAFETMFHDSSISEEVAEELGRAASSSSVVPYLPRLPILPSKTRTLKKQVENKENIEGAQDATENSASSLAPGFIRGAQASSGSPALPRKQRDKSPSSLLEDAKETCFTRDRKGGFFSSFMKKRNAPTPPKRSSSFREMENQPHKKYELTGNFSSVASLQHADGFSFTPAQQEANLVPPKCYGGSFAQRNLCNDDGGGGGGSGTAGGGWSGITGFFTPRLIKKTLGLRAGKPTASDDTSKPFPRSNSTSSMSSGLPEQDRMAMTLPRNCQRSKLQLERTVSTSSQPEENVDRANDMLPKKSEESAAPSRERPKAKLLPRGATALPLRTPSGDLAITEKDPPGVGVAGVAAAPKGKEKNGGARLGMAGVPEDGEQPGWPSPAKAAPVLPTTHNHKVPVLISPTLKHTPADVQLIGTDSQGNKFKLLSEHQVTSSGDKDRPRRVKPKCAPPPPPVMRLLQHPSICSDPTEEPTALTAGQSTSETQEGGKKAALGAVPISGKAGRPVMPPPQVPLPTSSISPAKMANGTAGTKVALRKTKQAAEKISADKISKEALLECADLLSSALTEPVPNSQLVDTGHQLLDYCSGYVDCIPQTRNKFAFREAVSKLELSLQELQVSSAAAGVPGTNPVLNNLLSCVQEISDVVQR
T1 sequence (P54764 20-986, species assumed): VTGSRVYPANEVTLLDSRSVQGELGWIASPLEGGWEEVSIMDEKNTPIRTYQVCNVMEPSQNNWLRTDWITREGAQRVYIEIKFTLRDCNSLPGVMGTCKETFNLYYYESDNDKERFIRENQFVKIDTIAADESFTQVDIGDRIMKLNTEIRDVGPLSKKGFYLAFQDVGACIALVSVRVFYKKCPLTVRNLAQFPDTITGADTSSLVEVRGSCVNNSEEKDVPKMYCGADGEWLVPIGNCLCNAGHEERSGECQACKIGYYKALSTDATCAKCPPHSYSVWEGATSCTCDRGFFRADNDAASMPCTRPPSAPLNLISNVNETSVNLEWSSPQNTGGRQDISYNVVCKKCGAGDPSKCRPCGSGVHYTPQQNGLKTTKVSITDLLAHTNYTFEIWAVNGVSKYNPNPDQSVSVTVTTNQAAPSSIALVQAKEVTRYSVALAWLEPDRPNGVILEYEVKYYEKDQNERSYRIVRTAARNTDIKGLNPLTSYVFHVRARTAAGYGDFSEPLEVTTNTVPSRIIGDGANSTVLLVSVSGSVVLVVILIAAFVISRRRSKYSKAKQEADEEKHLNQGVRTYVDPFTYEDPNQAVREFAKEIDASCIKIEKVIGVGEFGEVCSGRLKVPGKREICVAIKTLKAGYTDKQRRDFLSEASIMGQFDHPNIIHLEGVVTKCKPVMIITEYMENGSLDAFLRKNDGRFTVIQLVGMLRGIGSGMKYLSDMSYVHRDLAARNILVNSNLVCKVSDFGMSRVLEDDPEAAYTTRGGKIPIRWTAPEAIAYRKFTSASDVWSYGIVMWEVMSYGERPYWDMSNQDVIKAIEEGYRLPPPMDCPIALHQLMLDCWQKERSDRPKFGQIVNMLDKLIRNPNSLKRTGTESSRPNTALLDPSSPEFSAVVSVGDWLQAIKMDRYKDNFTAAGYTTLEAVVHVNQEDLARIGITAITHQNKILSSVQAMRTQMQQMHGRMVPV

As for `COc1ccc(C(=O)N2CCC3(CCN(C(=O)CCCCCCCN4CCN(c5cc(Nc6ncc(C(=O)Nc7c(C)cccc7Cl)s6)nc(C)n5)CC4)CC3)CC2)cc1N1CCC(=O)NC1=O` [compound 06, N-(2-chloro-6-methylphenyl)-2-((6-(4-(8-(9-(3-(2,4-dioxotetrahydropyrimidin-1(2H)-yl)-4-methoxybenzoyl)-3,9-diazaspiro[5.5]undecan-3-yl)-8-oxooctyl)piperazin-1-yl)-2-methylpyrimidin-4-yl)amino)thiazole-5-carboxamide], at EPHA4, the “EPHA4 Amax” value is listed as 9% and the DC50 is 4 nM. Moreover, at ABL2, the “ABL2 Amax” value came out at 22% and the DC50 was determined as 2 nM.
For `COc1ccc(C(=O)N2CCC3(CCN(C(=O)CN4CCN(c5cc(Nc6ncc(C(=O)Nc7c(C)cccc7Cl)s6)nc(C)n5)CC4)CC3)CC2)cc1N1CCC(=O)NC1=O` [compound 07, N-(2-chloro-6-methylphenyl)-2-((6-(4-(2-(9-(3-(2,4-dioxotetrahydropyrimidin-1(2H)-yl)-4-methoxybenzoyl)-3,9-diazaspiro[5.5]undecan-3-yl)-2-oxoethyl)piperazin-1-yl)-2-methylpyrimidin-4-yl)amino)thiazole-5-carboxamide] the same measures were 9%, 83 nM, 27% and 63 nM.
